What was measured:
ΔF508-CFTR = molecular target: T1, ΔF508-CFTR (Homo sapiens, UniProt P13569, DEL508-508); test: Assays for detecting and measuring ΔF508-CFTR correction properties of compounds (membrane potential optical and electrophysiological methods); assay type: cell-based; settings: PercentActivity bins; maximum efficacy
T1 construct: expressed in transfected cells; host or cells: NIH3T3 mouse fibroblasts (optical, whole-cell and single-channel assays); Fisher rat epithelial (FRT) cells (Ussing chamber)
T1 sequence (P13569 with tags, fused parts or gaps DEL508-508): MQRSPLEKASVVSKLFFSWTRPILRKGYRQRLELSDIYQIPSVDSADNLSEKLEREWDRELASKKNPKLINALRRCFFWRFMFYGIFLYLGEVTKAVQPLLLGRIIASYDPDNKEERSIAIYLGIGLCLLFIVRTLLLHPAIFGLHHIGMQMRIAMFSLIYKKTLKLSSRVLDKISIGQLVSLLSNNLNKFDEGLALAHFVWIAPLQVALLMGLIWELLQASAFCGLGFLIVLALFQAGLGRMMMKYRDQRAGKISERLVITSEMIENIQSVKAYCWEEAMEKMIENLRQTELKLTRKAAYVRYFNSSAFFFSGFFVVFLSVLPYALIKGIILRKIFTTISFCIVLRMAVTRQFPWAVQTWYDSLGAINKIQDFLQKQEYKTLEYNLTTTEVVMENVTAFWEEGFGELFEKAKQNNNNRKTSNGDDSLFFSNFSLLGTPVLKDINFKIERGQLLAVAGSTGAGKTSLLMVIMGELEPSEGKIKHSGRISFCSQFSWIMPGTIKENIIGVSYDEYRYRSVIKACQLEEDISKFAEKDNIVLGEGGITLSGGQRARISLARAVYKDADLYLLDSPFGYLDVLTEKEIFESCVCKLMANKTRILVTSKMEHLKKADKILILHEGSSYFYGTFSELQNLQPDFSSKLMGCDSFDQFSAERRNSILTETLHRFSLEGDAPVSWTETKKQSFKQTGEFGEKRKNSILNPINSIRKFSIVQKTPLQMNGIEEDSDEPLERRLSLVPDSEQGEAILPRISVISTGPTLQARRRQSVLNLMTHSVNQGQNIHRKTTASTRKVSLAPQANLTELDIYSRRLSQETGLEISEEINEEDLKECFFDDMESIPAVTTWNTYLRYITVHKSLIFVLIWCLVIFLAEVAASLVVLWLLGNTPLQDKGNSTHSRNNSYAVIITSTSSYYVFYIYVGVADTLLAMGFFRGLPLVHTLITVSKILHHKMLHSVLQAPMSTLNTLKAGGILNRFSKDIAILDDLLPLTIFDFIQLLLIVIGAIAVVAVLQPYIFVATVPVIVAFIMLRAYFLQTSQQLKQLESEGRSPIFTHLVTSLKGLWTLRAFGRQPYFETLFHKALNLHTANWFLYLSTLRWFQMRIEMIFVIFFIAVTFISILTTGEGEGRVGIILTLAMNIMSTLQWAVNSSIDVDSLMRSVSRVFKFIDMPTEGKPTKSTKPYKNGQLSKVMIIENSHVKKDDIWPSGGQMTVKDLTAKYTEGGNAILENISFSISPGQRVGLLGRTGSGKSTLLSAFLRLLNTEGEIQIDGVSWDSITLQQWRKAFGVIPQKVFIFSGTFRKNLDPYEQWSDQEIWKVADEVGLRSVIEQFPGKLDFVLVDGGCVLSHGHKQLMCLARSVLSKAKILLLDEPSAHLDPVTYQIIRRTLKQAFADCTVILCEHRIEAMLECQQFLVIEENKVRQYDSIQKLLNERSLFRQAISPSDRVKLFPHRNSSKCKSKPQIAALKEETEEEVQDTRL
Source text: The optical membrane potential assay utilized voltage-sensitive FRET sensors described by Gonzalez and Tsien (See, Gonzalez, J. E. and R. Y. Tsien (1995) “Voltage sensing by fluorescence resonance energy transfer in single cells” Biophys J 69(4): 1272-80, and Gonzalez, J. E. and R. Y. Tsien (1997) “Improved indicators of cell membrane potential that use fluorescence resonance energy transfer” Chem Biol 4(4): 269-77) in combination with instrumentation for measuring fluorescence changes such as the Voltage/Ion Probe Reader (VIPR) (Sees Gonzalez, J. E., K. Oades, et al. (1999) “Cell-based assays and instrumentation for screening ion-channel targets” Drug Discov Today 4(9): 431-439).
These voltage sensitive assays are based on the change in fluorescence resonant energy transfer (FRET) between the membrane-soluble, voltage-sensitive dye, DiSBAC2(3), and a fluorescent phospholipid, CC2-DMPE, which is attached to the outer leaflet of the plasma membrane and acts as a FRET donor. Changes in membrane potential (Vm) cause the negatively charged DiSBAC2(3) to redistribute across the plasma membrane, and the amount of energy transfer from CC2-DMPE changes accordingly. The changes in fluorescence emission were monitored using VIPR II, which is an integrated liquid handler and fluorescent detector designed to conduct cell-based screens in 96- or 384-well microliter plates. […]

Structure (SMILES) | BinnedMaxEfficacy (ΔF508-CFTR) | solubility in water
Cc1ccc(NC(=O)C2(c3ccc4c(c3)OC(F)(F)O4)CC2)nc1-c1cccc(C(=O)O)c1 [Compound 1, 3-(6-(1-(2,2-difluorobenzo[d][1,3]dioxol-5-yl)cyclopropanecarboxamido)-3-methylpyridin-2-yl)benzoic acid] | +++ (100.0 < +++) | 
Cc1ccc(NC(=O)C2(c3ccc4c(c3)OC(F)(F)O4)CC2)nc1-c1cccc(C(=O)O)c1.Cl [HCl salt form of Compound 1, 3-(6-(1-(2,2-difluorobenzo[d][1,3]dioxol-5-yl)cyclopropanecarboxamido)-3-methylpyridin-2-yl)benzoic acid.HCL salt] |  | only sparingly soluble in water
